This is an account of results in ChEMBL document CHEMBL1139118, “A novel, non-substrate-based series of glycine type 1 transporter inhibitors derived from high-throughput screening” (Bioorg Med Chem Lett, 2007).

Data set [1] deals with Voltage-gated inwardly rectifying potassium channel KCNH2 (Homo sapiens, UniProt Q12809). The experiment in a line: Displacement of [3H]dofetilide from human ERG channel expressed in HEK293 cells. (Displacement assays read how much labelled ligand stays bound in the presence of the test substance.)
Data set [2] has as its target T1, Sodium- and chloride-dependent glycine transporter 1 (Homo sapiens, UniProt P48067).
T1 sequence (P48067 whole entry): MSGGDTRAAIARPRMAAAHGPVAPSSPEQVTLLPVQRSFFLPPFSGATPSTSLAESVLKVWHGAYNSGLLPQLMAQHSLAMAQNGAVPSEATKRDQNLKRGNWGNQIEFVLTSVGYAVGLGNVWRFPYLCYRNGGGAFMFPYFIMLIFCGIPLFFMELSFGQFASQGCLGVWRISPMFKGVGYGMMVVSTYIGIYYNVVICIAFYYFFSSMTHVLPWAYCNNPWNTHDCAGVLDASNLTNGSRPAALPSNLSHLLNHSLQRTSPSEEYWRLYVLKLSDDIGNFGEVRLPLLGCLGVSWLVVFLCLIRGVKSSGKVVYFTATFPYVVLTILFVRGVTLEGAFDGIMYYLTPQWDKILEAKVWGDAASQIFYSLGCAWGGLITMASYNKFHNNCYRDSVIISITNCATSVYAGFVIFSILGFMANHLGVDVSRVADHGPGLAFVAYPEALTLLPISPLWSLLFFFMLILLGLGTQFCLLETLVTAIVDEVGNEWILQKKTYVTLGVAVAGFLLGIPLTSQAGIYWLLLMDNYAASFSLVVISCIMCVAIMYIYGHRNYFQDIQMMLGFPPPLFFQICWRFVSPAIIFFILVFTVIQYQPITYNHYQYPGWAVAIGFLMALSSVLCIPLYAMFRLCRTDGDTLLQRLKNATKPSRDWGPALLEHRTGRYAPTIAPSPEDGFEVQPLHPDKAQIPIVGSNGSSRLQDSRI
The data set is described as follows: Displacement of [3H]NPTS from human GlyT1C expressed in HEK293 cells. The data set is classed as cell-based.

In data set [3] the target is 5-hydroxytryptamine receptor 1B (Homo sapiens, UniProt P28222). The experiment in a line: Displacement of [3H]5-hydroxytrytamine from human 5HT1B receptor expressed in HEK293 cells. The data set is classed as cell-based.
The target in data set [4] is T2, Sodium- and chloride-dependent glycine transporter 2 (Homo sapiens, UniProt Q9Y345).
T2 sequence (Q9Y345 whole entry): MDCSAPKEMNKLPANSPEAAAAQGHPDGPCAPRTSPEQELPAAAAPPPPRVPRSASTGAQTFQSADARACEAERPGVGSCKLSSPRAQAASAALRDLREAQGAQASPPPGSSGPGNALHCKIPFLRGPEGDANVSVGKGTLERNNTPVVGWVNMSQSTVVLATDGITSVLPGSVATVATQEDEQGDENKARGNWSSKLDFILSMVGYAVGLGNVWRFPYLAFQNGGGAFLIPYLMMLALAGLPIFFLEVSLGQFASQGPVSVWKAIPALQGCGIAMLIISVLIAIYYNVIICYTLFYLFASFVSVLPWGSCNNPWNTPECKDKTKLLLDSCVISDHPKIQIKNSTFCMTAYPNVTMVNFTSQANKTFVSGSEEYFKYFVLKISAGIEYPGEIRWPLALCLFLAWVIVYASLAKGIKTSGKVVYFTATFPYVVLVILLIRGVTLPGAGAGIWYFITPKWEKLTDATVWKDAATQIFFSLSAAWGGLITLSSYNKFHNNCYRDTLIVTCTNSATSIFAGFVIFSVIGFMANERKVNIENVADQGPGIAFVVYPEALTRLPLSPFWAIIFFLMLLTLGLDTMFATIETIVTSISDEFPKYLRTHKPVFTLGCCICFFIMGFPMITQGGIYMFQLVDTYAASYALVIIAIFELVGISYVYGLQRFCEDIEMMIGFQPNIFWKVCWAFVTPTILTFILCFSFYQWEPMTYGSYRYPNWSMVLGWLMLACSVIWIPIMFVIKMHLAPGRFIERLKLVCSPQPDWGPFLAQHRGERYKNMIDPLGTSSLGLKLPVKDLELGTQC
The experiment in a line: Inhibition of [3H]glycine uptake at human GlyT2 expressed in HEK293 cells. The data set is classed as cell-based.

Data set [5] can be described thus: Metabolic stability in human liver microsomes assessed as half life. The format is ADME, Microsome.
In the next data set the target is CYP2D6 (Homo sapiens, UniProt P10635). The data set is described as follows: Inhibition of human recombinant CYP2D6 at 1.5 uM. The format is ADME.

Where only a bound is given, the exact number is not on record here.

Chain of Voltage-gated inwardly rectifying potassium channel KCNH2 (Q12809 whole entry): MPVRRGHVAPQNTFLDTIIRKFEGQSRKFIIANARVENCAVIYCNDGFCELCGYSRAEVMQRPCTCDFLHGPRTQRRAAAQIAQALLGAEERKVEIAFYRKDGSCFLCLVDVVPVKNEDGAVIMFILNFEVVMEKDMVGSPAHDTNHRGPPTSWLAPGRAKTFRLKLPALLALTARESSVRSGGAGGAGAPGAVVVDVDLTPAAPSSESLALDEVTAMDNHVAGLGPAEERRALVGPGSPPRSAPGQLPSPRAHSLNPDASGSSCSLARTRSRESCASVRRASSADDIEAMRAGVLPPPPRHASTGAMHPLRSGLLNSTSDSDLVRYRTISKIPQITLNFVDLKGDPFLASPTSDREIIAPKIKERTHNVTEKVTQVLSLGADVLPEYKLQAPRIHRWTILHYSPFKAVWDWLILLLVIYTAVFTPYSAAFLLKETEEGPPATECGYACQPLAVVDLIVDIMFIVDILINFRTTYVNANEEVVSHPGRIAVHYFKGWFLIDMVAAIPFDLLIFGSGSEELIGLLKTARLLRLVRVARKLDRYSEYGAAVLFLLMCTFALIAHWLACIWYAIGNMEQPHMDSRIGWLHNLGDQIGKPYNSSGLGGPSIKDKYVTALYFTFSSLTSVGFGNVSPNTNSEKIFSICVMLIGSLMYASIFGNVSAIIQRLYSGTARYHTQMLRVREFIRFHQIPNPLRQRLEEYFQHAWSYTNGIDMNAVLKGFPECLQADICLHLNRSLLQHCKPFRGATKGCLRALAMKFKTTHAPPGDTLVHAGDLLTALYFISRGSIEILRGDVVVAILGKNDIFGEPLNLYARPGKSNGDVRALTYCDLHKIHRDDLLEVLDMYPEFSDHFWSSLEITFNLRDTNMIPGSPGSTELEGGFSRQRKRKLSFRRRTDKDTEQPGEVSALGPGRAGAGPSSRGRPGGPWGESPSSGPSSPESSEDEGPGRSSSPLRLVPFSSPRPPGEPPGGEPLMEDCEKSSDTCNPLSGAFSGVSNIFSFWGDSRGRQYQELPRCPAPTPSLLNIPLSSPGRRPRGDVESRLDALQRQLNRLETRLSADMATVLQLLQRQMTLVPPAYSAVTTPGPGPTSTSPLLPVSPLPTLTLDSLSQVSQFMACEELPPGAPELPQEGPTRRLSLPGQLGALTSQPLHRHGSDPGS
Chain of CYP2D6 (P10635 whole entry): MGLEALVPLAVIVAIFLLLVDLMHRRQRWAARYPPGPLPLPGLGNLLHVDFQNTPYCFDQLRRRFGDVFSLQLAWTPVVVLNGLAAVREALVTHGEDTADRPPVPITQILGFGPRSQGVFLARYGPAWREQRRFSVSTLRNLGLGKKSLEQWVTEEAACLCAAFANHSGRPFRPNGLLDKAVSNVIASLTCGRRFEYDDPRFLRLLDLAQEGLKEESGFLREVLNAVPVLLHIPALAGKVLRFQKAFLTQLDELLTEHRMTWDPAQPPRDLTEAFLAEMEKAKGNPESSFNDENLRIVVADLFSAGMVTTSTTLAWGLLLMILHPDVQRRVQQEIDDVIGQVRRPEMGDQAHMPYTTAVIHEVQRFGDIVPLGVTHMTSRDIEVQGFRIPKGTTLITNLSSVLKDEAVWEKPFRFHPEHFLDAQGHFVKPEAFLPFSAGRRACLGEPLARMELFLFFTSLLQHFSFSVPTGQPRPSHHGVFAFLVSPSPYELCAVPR
Chain of 5-hydroxytryptamine receptor 1B (P28222 whole entry): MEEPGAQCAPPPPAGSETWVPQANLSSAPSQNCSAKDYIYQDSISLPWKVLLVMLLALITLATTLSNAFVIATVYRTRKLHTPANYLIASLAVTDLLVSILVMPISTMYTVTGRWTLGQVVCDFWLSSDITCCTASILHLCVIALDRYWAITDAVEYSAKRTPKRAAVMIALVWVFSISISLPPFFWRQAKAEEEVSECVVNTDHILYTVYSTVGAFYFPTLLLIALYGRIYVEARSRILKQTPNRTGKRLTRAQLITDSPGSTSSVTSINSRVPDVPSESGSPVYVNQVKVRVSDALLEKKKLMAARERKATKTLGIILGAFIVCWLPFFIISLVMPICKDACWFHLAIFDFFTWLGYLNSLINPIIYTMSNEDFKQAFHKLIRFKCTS

By Ki is commonly meant the equilibrium dissociation constant of an inhibitor or competing ligand from its target. A lower Ki goes with a stronger hold on the target. As usually defined, the IC50 is the concentration needed to halve the response being measured. Turning to `OCC1CCCN(CCCC2CCCc3ccc(OCc4noc(-c5ccc(Cl)cc5)n4)cc32)C1` (stereo in doubt; 8D), the inhibitory constant (Ki) in data set [1] turned out to be 206 nM. In data set [2], this compound displayed an IC50 of 26 nM.
What is called half-life is how long it takes for the measured level to halve. Usually inhibition stands for the share of the control response that was lost under treatment. For the compound `OCC1CCCN(CCCC2CCCc3ccc(OCc4noc(-c5ccc(Cl)cc5)n4)cc32)C1` (stereo in doubt; 8), the Ki in data set [3] is above 1000 nM; in data set [1], 271 nM; in data set [2], 15.9 nM. The IC50 in data set [4] was 319 nM. The half-life in data set [5] worked out at 22 min. The inhibition at 1.5 µM at CYP2D6 turned out to be 96%.
In the case of `OCC1(NCCCC2CCc3ccc(OCc4noc(-c5ccc(Cl)cc5)n4)cc32)CCCC1` (configuration not stated), the Ki in data set [3] is above 300 nM; in data set [1], 525 nM; in data set [2], 108 nM. Further, the half-life in data set [5] was found to be 12 min. Also, at CYP2D6, the inhibition at 1.5 µM was found to be 70%.
In data set [4], `OCC1CCCN(CCCC2CCCc3ccc(OCc4ccc(-c5ccccc5F)cn4)cc32)C1` (configuration not stated) had an IC50 of 401 nM. In addition, the half-life in data set [5] is 24 min. For the same compound, the Ki in data set [1] stood at 410 nM; in data set [2], 11 nM. Further, the inhibition at 1.5 µM on CYP2D6 worked out at 30%.
In turn, `OCC1CCCN(CCCC2CCCc3ccc(OCc4noc(-c5ccccc5F)n4)cc32)C1` (configuration not stated) gave a concentration for half-maximal inhibition (IC50) in data set [4] of 385 nM. Moreover, the half-life in data set [5] stood at 17 min. Besides, the Ki is 1300 nM in data set [1] and 10.2 nM in data set [2]. At CYP2D6, the inhibition at 1.5 µM was found to be 43%.
As for `OCC1CCCN(CCCC2CCCc3ccc(OCc4noc(-c5ccc(Cl)cc5)n4)cc32)C1` (stereo in doubt; 8A), affinity in data set [1] was put at a Ki of 381 nM. The same compound displayed an IC50 in data set [2] of 38 nM.
With `CN1CCN(c2cccc3ccc(OCc4noc(-c5ccc(Cl)cc5)n4)cc23)CC1`, the inhibition constant (Ki) was below 1 nM in data set [3] and 500 nM in data set [2]. Also, the half-life in data set [5] was 22 min. Further, at CYP2D6, the inhibition at 1.5 µM came out at 75%.
Take `OCC1CCCN(CCCC2CCCc3ccc(OCc4noc(-c5ccc(Cl)cc5)n4)cc32)C1` (stereo in doubt; 8B): the Ki in data set [1] was determined as 214 nM. Also, the IC50 in data set [2] was 24 nM.
For the compound `CC1CC(N2CCN(C3CCc4ccc(OCc5noc(-c6ccc(Cl)cc6)n5)cc43)CC2)CC1C` (configuration not stated), the values for the inhibitory constant (Ki) in data set [3] and in data set [2] were 414 nM and 134 nM, respectively. For the same compound, the half-life in data set [5] came to 7 min. In addition, the inhibition at 1.5 µM on CYP2D6 was determined as 29%.
The compound `OCC1CCCN(CCCC2CCCc3ccc(OCc4noc(-c5ccc(Cl)cc5)n4)cc32)C1` (stereo in doubt; 8C) displayed a Ki in data set [1] of 219 nM. Besides, the IC50 in data set [2] came out at 31 nM.
Regarding `CCN(Cc1cccc(OCc2noc(-c3ccccc3F)n2)c1)C1CCN(C2CC(C)C(C)C2)C1` (configuration not stated), in data set [4], the 50% inhibitory concentration (IC50) came to 857 nM. The half-life in data set [5] came to 26 min. In addition, the inhibition constant Ki turned out to be 222 nM in data set [1] and 85.3 nM in data set [2]. In addition, the inhibition at 1.5 µM on CYP2D6 was found to be 84%.
Take `Fc1ccccc1-c1nc(COc2ccc3c(c2)C(N2CCN(C4CCCC4)CC2)CC3)no1` (configuration not stated): half-maximal inhibition in data set [4] (IC50) required 531 nM. The half-life in data set [5] worked out at 12 min. In addition, in data set [2], the affinity corresponds to a Ki of 66.8 nM. In addition, the inhibition at 1.5 µM on CYP2D6 was 94%.
The compound `OCC1(N2CCN(C3CCc4ccc(OCc5noc(-c6ccc(Cl)cc6)n5)cc43)CC2)CCCC1` (configuration not stated) gave a Ki in data set [3] of 1490 nM. The inhibition at 1.5 µM on CYP2D6 amounted to 47%.
Take `OCC1(N2CCN(C3CCc4ccc(OCc5noc(-c6ccccc6F)n5)cc43)CC2)CCCC1` (configuration not stated): the IC50 in data set [4] was determined as 31.5 nM. The half-life in data set [5] came out at 14 min. The compound also displayed a Ki in data set [2] of 61.4 nM. For the same compound, the inhibition at 1.5 µM on CYP2D6 is 85%.
In the case of `CC(C)N1CCN(C2CCc3ccc(OCc4noc(-c5ccc(Cl)cc5)n4)cc32)CC1` (configuration not stated), the figures for the Ki in data set [3], in data set [1] and in data set [2] were 31 nM, 98.1 nM and 394 nM, respectively. In data set [5], the half-life is 13 min. Further, the inhibition at 1.5 µM at CYP2D6 worked out at 43%.
